# Laboratory results published in ChEMBL document CHEMBL4177660, “Discovery of furan and dihydrofuran-fused tricyclic benzo[d]imidazole derivatives as potent and orally efficacious microsomal prostaglandin E synthase-1 (mPGES-1) inhibitors: Part-1” (Bioorg Med Chem Lett, 2017).
# Columns and labels:
# [1] = Intrinsic solubility of the compound; type: physicochemical
# [2] = Ratio of drug level in Sprague-Dawley rat brain to plasma; type: ADME, cell-free; conditions: brain and plasma, read-out: BPR
# [3] = Permeability of the compound by PAMPA; type: ADME; conditions: read-out: permeability
# [4] = Solubility of the compound in DMSO; type: physicochemical
# [5] = Solubility of the compound in FaSSIF at pH 6; type: physicochemical
# [6] = Solubility of the compound in FeSSIF at pH 5.2; type: physicochemical
# [7] = Solubility of the compound in acetate buffer at pH 4.5; type: physicochemical
# [8] = Solubility of the compound in 0.1N HCl; type: physicochemical
# Rattus norvegicus [9] = assay: Cmax in Sprague-Dawley rat at 10 mg/kg, po; type: ADME, organism-based; set-up: dose 10 mg/kg, route oral; conditions: in vivo
# Rattus norvegicus [10] = assay: AUC (0 to 24 hrs) in Sprague-Dawley rat at 10 mg/kg, po; type: ADME, organism-based; set-up: time < 24 hr, dose 10 mg/kg, route oral; conditions: in vivo
# Rattus norvegicus [11] = assay: Tmax in Sprague-Dawley rat at 10 mg/kg, po; type: ADME, organism-based; conditions: in vivo
# [12] = Oral bioavailability in Sprague-Dawley rat at 10 mg/kg; type: ADME, organism-based; conditions: in vivo
# [13] = Cmax in Sprague-Dawley rat at 30 mg/kg, po; type: ADME, organism-based; set-up: dose 30 mg/kg, route oral; conditions: in vivo
# [14] = AUC (0 to 24 hrs) in Sprague-Dawley rat at 30 mg/kg, po; type: ADME, organism-based; set-up: time < 24 hr, dose 30 mg/kg, route oral; conditions: in vivo
# [15] = Tmax in Sprague-Dawley rat at 30 mg/kg, po; type: ADME, organism-based; conditions: in vivo
# [16] = Oral bioavailability in Sprague-Dawley rat at 30 mg/kg; type: ADME, organism-based; conditions: in vivo
# [17] = Cmax in Sprague-Dawley rat at 100 mg/kg, po; type: ADME, organism-based; set-up: dose 100 mg/kg, route oral; conditions: in vivo
# [18] = AUC (0 to 24 hrs) in Sprague-Dawley rat at 100 mg/kg, po; type: ADME, organism-based; set-up: dose 100 mg/kg, time < 24 hr, route oral; conditions: in vivo
# [19] = Tmax in Sprague-Dawley rat at 100 mg/kg, po; type: ADME, organism-based; conditions: in vivo
# [20] = Cmax in Dunkin-Hartley guinea pig at 10 mg/kg, po; type: ADME, organism-based, Cavia porcellus; set-up: dose 10 mg/kg, route oral; conditions: in vivo
# [21] = AUC (0 to 24 hrs) in Dunkin-Hartley guinea pig at 10 mg/kg, po; type: ADME, organism-based, Cavia porcellus; set-up: time < 24 hr, dose 10 mg/kg, route oral; conditions: in vivo
# [22] = Tmax in Dunkin-Hartley guinea pig at 10 mg/kg, po; type: ADME, organism-based, Cavia porcellus; conditions: in vivo
# [23] = Cmax in Dunkin-Hartley guinea pig at 30 mg/kg, po; type: ADME, organism-based, Cavia porcellus; set-up: dose 30 mg/kg, route oral; conditions: in vivo
# [24] = AUC (0 to 24 hrs) in Dunkin-Hartley guinea pig at 30 mg/kg, po; type: ADME, organism-based, Cavia porcellus; set-up: dose 30 mg/kg, time < 24 hr, route oral; conditions: in vivo
# [25] = Tmax in Dunkin-Hartley guinea pig at 30 mg/kg, po; type: ADME, organism-based, Cavia porcellus; conditions: in vivo
# [26] = Cmax in Dunkin-Hartley guinea pig at 100 mg/kg, po; type: ADME, organism-based, Cavia porcellus; set-up: dose 100 mg/kg, route oral; conditions: in vivo
# [27] = AUC (0 to 24 hrs) in Dunkin-Hartley guinea pig at 100 mg/kg, po; type: ADME, organism-based, Cavia porcellus; set-up: time < 24 hr, dose 100 mg/kg, route oral; conditions: in vivo
# [28] = Tmax in Dunkin-Hartley guinea pig at 100 mg/kg, po; type: ADME, organism-based, Cavia porcellus; conditions: in vivo
# [29] = Cmax in Beagle dog at 10 mg/kg, po; type: ADME, organism-based, Canis lupus familiaris; set-up: dose 10 mg/kg, route oral; conditions: in vivo
# [30] = AUC (0 to 24 hrs) in Beagle dog at 10 mg/kg, po; type: ADME, organism-based, Canis lupus familiaris; set-up: time < 24 hr, dose 10 mg/kg, route oral; conditions: in vivo
# [31] = Tmax in Beagle dog at 10 mg/kg, po; type: ADME, organism-based, Canis lupus familiaris; conditions: in vivo
# [32] = Cmax in cynomolgus monkey at 10 mg/kg, po; type: ADME, organism-based, Macaca fascicularis; set-up: dose 10 mg/kg, route oral; conditions: in vivo
# [33] = AUC (0 to 24 hrs) in cynomolgus monkey at 10 mg/kg, po; type: ADME, organism-based, Macaca fascicularis; set-up: dose 10 mg/kg, time < 24 hr, route oral; conditions: in vivo
# [34] = Tmax in cynomolgus monkey at 10 mg/kg, po; type: ADME, organism-based, Macaca fascicularis; conditions: in vivo
# [35] = Oral bioavailability in cynomolgus monkey at 10 mg/kg; type: ADME, organism-based, Macaca fascicularis; conditions: in vivo
# Cynomolgus monkey = assay: Apparent volume of distribution in cynomolgus monkey at 10 mg/kg, po; type: ADME, organism-based, Macaca fascicularis; conditions: in vivo
# [36] = Drug level in Sprague-Dawley rat brain; type: ADME, tissue-based; conditions: in vivo
# [37] = Drug level in Sprague-Dawley rat plasma; type: ADME, cell-free
# [38] = Plasma concentration in Dunkin-Hartley guinea pig model of LPS-induced thermal hyperalgesia at 3 mg/kg, po pretreated for 4 hrs followed by LPS challenge measured at […] post dose; type: ADME, organism-based, Cavia porcellus
# [39] = Plasma concentration in Dunkin-Hartley guinea pig model of LPS-induced thermal hyperalgesia at 10 mg/kg, po pretreated for 4 hrs followed by LPS challenge measured at […] post dose; type: ADME, organism-based, Cavia porcellus
# [40] = Plasma concentration in Dunkin-Hartley guinea pig model of LPS-induced thermal hyperalgesia at 30 mg/kg, po pretreated for 4 hrs followed by LPS challenge measured at […] post dose; type: ADME, organism-based, Cavia porcellus
# Rattus norvegicus [41] = assay: Apparent volume of distribution in Sprague-Dawley rat at 1 mg/kg, iv; conditions: in vivo
smiles,measurement,setting,value
CC1(C)Cc2c(c(C(=O)Nc3ccc(C(F)(F)F)cc3)cc3nc(Nc4c(F)cccc4Cl)[nH]c23)O1,solubility,[1],Soluble
same,Kp,[2],0.22
same,Papp,[3],0.13 ×10⁻⁶ cm/s
same,solubility,[4],25000 µg/mL
same,solubility,[5],0.9 µg/mL
same,solubility,[6],0.6 µg/mL
same,solubility,[7],Insoluble
same,solubility,[8],0.2 µg/mL
same,Cmax,Rattus norvegicus [9],546 ng/mL
same,AUC,Rattus norvegicus [10],6505 ng·h/mL
same,Tmax,Rattus norvegicus [11],2 h
same,bioavailability,[12],100%
same,Cmax,[13],2530 ng/mL
same,AUC(0-t) at 24 h,[14],32400 ng·h/mL
same,Tmax,[15],2 h
same,bioavailability,[16],100%
same,Cmax,[17],5550 ng/mL
same,AUC(0-t) at 24 h,[18],108000 ng·h/mL
same,Tmax,[19],8 h
same,Cmax,[20],426 ng/mL
same,AUC(0-t) at 24 h,[21],5080 ng·h/mL
same,Tmax,[22],4 h
same,Cmax,[23],742 ng/mL
same,AUC(0-t) at 24 h,[24],11600 ng·h/mL
same,Tmax,[25],4 h
same,Cmax,[26],736 ng/mL
same,AUC(0-t) at 24 h,[27],11700 ng·h/mL
same,Tmax,[28],2 h
same,Cmax,[29],1090 ng/mL
same,AUC(0-t) at 24 h,[30],22000 ng·h/mL
same,Tmax,[31],12 h
same,Cmax,[32],908 ng/mL
same,AUC(0-t) at 24 h,[33],16700 ng·h/mL
same,Tmax,[34],6 h
same,bioavailability,[35],78%
same,Vz,Cynomolgus monkey,1.67 L/kg
same,Drug uptake,[36],58.9 ng/mL
same,Cp,[37],268.9 ng/mL
same,concentration at […],[38],43 ng/mL
same,concentration at […],[39],116 ng/mL
same,concentration at […],[40],371 nM
same,Vz,Rattus norvegicus [41],3.59 L/kg
CC1(C)Cc2c(c(C(=O)NCC(F)(F)C(F)(F)F)cc3nc(Nc4c(Cl)cccc4Cl)[nH]c23)O1,solubility,[1],Soluble
CC1(C)Cc2c(c(C(=O)Nc3ccc(F)cc3)cc3nc(Nc4c(Cl)cccc4Cl)[nH]c23)O1,solubility,[1],Soluble
CC1(C)Cc2c(c(C(=O)Nc3ccc(F)c(C(F)(F)F)c3)cc3nc(Nc4c(Cl)cncc4Cl)[nH]c23)O1,solubility,[1],Soluble
CC1(C)Cc2c(c(C(=O)NCC3CC3)cc3nc(Nc4c(Cl)cncc4Cl)[nH]c23)O1,solubility,[1],Soluble
CC1(C)Cc2c(c(C(=O)Nc3ccccc3)cc3nc(Nc4c(Cl)cccc4Cl)[nH]c23)O1,solubility,[1],Soluble
CC1(C)Cc2c(c(C(=O)Nc3ccc(OC(F)F)nc3)cc3nc(Nc4c(F)cccc4Cl)[nH]c23)O1,solubility,[1],Soluble
CC1(C)Cc2c(c(C(=O)NC3CCC(F)(F)CC3)cc3nc(Nc4c(Cl)cccc4Cl)[nH]c23)O1,solubility,[1],Soluble
COc1ccc(NC(=O)c2cc3nc(Nc4c(Cl)cccc4Cl)[nH]c3c3c2OC(C)(C)C3)cn1,solubility,[1],Soluble
CC1(C)Cc2c(c(C(=O)NCC3CCCCC3)cc3nc(Nc4c(Cl)cncc4Cl)[nH]c23)O1,solubility,[1],Soluble
Cc1cc2c(o1)c(C(=O)Nc1ccc(C(F)(F)F)cc1)cc1nc(Nc3c(Cl)cncc3Cl)[nH]c12,solubility,[1],Insoluble
CC1(C)Cc2c(c(C(=O)NCC3CC3)cc3nc(Nc4c(Cl)cccc4Cl)[nH]c23)O1,solubility,[1],Soluble
CC1(C)Cc2c(c(C(=O)Nc3ccc(C(F)(F)F)cc3)cc3nc(Nc4c(Cl)cccc4Cl)[nH]c23)O1,solubility,[1],Soluble
same,solubility,[4],20000 µg/mL
same,solubility,[5],0.3 µg/mL
same,solubility,[6],0.6 µg/mL
same,solubility,[7],Insoluble
same,solubility,[8],0.1 µg/mL
CC1(C)Cc2c(c(C(=O)Nc3ccc(Cl)cn3)cc3nc(Nc4c(F)cccc4Cl)[nH]c23)O1,solubility,[1],Soluble
CC1(C)Cc2c(c(C(=O)NCC3CCCC3)cc3nc(Nc4c(Cl)cccc4Cl)[nH]c23)O1,solubility,[1],Soluble
CC1(C)Cc2c(c(C(=O)Nc3ccc(F)cc3)cc3nc(Nc4c(F)cccc4Cl)[nH]c23)O1,solubility,[1],Soluble
CC1(C)Cc2c(c(C(=O)Nc3cccc(C4CC4)c3)cc3nc(Nc4c(F)cccc4Cl)[nH]c23)O1,solubility,[1],Soluble
Cc1cc2c(o1)c(C(=O)Nc1ccc(C(F)(F)F)cc1)cc1nc(Nc3c(Cl)cccc3Cl)[nH]c12,solubility,[1],Insoluble
CC1(C)Cc2c(c(C(=O)Nc3ccc(C(F)(F)F)cc3F)cc3nc(Nc4c(Cl)cncc4Cl)[nH]c23)O1,solubility,[1],Soluble
Cc1cc2c(o1)c(C(=O)Nc1cccc(C(F)(F)F)c1)cc1nc(Nc3c(Cl)cccc3Cl)[nH]c12,solubility,[1],Insoluble
Cc1ccc(NC(=O)c2cc3nc(Nc4c(Cl)cccc4Cl)[nH]c3c3c2OC(C)(C)C3)c(C)n1,solubility,[1],Soluble
CC1(C)Cc2c(c(C(=O)Nc3ccc(C4CC4)cc3)cc3nc(Nc4c(F)cccc4Cl)[nH]c23)O1,solubility,[1],Soluble
CC1(C)Cc2c(c(C(=O)NCC(F)(F)F)cc3nc(Nc4c(Cl)cccc4Cl)[nH]c23)O1,solubility,[1],Soluble
CC1(C)Cc2c(c(C(=O)Nc3ccc(C(F)(F)F)nc3)cc3nc(Nc4c(Cl)cccc4Cl)[nH]c23)O1,solubility,[1],Soluble
CC1(C)Cc2c(c(C(=O)NC3CCCCC3)cc3nc(Nc4c(Cl)cncc4Cl)[nH]c23)O1,solubility,[1],Soluble
CC1(C)Cc2c(c(C(=O)Nc3ccc(C(F)(F)F)cc3)cc3nc(Nc4c(Cl)cncc4Cl)[nH]c23)O1,solubility,[1],Soluble
